One sequence from patent publication US20230270832A1, “MAGEA1 IMMUNOGENIC PEPTIDES, BINDING PROTEINS RECOGNIZING MAGEA1 IMMUNOGENIC PEPTIDES, AND USES THEREOF” (TScan Therapeutics, Inc., priority 2021, published 2023) can be followed below.

This experiment relates to TCR-transduced T cells. Kind of experiment: Peptide-pulsed HLA-C*07:02 monoallelic HEK293T granzyme-activated fluorescent reporter cells co-cultured with TCR-transduced T cells. The class given is cell-based, human. The method, then:
Overlapping peptide sequences with a score >2.5 fold were used to predict MHC binding with NetMHC4.0 (available on the World Wide Web at cbs.dtu.dk) and the top predicted MHC binding peptides were synthesized (Genscript). Monoallelic C*07:02 HEK293T reporter cells were pulsed with serial dilutions 0-20,000 ng/ml of each peptide candidate for 1 hour and then co-cultured with TCR-transduced T cells (1-IN-32-39 or HN-32-41) at an E:T ratio of ˜1:1. After 4 hours, the cultures were harvested by pipetting and fluorescence of the reporter was detected using a CytoFLEX™ S instrument (Beckman Coulter). Additionally, monoallelic C*07:02 HEK293 suspension cells were pulsed with serial dilutions 0-500 pM of peptide VBFFFPSL (SEQ ID NO: 1) for 2 hours and then co-cultured with TCR-transduced T cells (HN-32-39 or HN-32-41) at an E:T ratio of 1:1 overnight. Cells were then harvested by pipetting and centrifuged at 2,000 rpm for 2 minutes. The supernatant was collected for IFNγ measurement using a human IFNγ 3rd generation single-plex assay (Protein Simple).

Consider “VRFFFPSL (listed as Homo sapiens) [VBFFFPSL]”, for which the “immunogenicity in peptide validation” value (FIGS. 2D and 2E) is on record as “most favorable immunogenicity”. Moreover, the “reactivity of the TCR-transduced T cells to peptide-pulsed reporter cells (epitope confirmation)” value (HLA-C*07:02 monoallelic HEK293T, granzyme-activated fluorescent reporter, FIGS. 2D and 2E left) is recorded as “minimal MAGEA1 epitope”.
